Measured values published in PubChem BioAssay (NCI).
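Cells were grown in 96-well plates and exposed to each compound for 48 hours at five concentrations; endpoints were interpolated linearly between bracketing concentrations, or set to the highest concentration if not reached. TGI denotes the concentration required for complete inhibition of growth.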

Columns and labels:
Assay in all cases: NCI anticancer screen, dose series, 48 h
786-0 renal = test system: 786-0 renal
A498 renal = test system: A498 renal
A549 NSCLC = test system: A549 NSCLC
ACHN renal = test system: ACHN renal
CAKI-1 renal = test system: CAKI-1 renal
CCRF-CEM leukemia = test system: CCRF-CEM leukemia
COLO 205 colon = test system: COLO 205 colon
DU-145 prostate = test system: DU-145 prostate
HCC-2998 colon = test system: HCC-2998 colon
HCT-116 colon = test system: HCT-116 colon
HCT-15 colon = test system: HCT-15 colon
HL-60(TB) leukemia = test system: HL-60(TB) leukemia
HOP-62 NSCLC = test system: HOP-62 NSCLC
HOP-92 NSCLC = test system: HOP-92 NSCLC
HT29 colon = test system: HT29 colon
IGROV1 ovarian = test system: IGROV1 ovarian
K-562 leukemia = test system: K-562 leukemia
KM12 colon = test system: KM12 colon
LOX IMVI melanoma = test system: LOX IMVI melanoma
M14 melanoma = test system: M14 melanoma
MALME-3M melanoma = test system: MALME-3M melanoma
MCF7 breast = test system: MCF7 breast
MDA-MB-231 breast = test system: MDA-MB-231 breast
MDA-MB-435 = test system: MDA-MB-435
MDA-N = test system: MDA-N
MOLT-4 leukemia = test system: MOLT-4 leukemia
NCI-H226 lung = test system: NCI-H226 lung
NCI-H23 lung = test system: NCI-H23 lung
NCI-H460 lung = test system: NCI-H460 lung
NCI-H522 lung = test system: NCI-H522 lung
NCI/ADR-RES ovarian = test system: NCI/ADR-RES ovarian
OVCAR-3 ovarian = test system: OVCAR-3 ovarian
OVCAR-4 ovarian = test system: OVCAR-4 ovarian
OVCAR-5 ovarian = test system: OVCAR-5 ovarian
OVCAR-8 ovarian = test system: OVCAR-8 ovarian
PC-3 prostate = test system: PC-3 prostate
RXF 393 renal = test system: RXF 393 renal
SF-268 CNS = test system: SF-268 CNS
SF-295 CNS = test system: SF-295 CNS
SF-539 CNS = test system: SF-539 CNS
SK-MEL-2 melanoma = test system: SK-MEL-2 melanoma
SK-MEL-28 melanoma = test system: SK-MEL-28 melanoma
SK-MEL-5 melanoma = test system: SK-MEL-5 melanoma
SK-OV-3 ovarian = test system: SK-OV-3 ovarian
SN12C renal = test system: SN12C renal
SNB-19 CNS = test system: SNB-19 CNS
SNB-75 CNS = test system: SNB-75 CNS
SR leukemia = test system: SR leukemia
SW-620 colon = test system: SW-620 colon
T-47D breast = test system: T-47D breast
TK-10 renal = test system: TK-10 renal
U251 CNS = test system: U251 CNS
UACC-257 melanoma = test system: UACC-257 melanoma
UACC-62 melanoma = test system: UACC-62 melanoma
UO-31 renal = test system: UO-31 renal

**Q.** Which TGI (786-0 renal) does the source give for `COc1ccc(-c2c(C(C)=O)c(C)n(C3OC(COC(C)=O)C(OC(C)=O)C(OC(C)=O)C3OC(C)=O)c(=S)c2C#N)cc1` (stereo not given) here?
**A.** Its TGI is over 100 µM.

**Q.** And the TGI (A498 renal)?
**A.** Its TGI is over 100 µM.

**Q.** What about the TGI (A549 NSCLC) of the same compound?
**A.** The TGI was over 100 µM.

**Q.** What about the TGI (ACHN renal) of the same compound?
**A.** Its TGI is over 100 µM.

**Q.** And the TGI (CAKI-1 renal)?
**A.** Its TGI is over 100 µM.

**Q.** And the TGI (CCRF-CEM leukemia)?
**A.** The TGI was over 100 µM.

**Q.** What about the TGI (COLO 205 colon) of the same compound?
**A.** The TGI was over 100 µM.

**Q.** And the TGI (DU-145 prostate)?
**A.** Its TGI is over 100 µM.

**Q.** And the TGI (HCC-2998 colon)?
**A.** Its TGI is over 100 µM.

**Q.** What about the TGI (HCT-116 colon) of the same compound?
**A.** The TGI was over 100 µM.

**Q.** And the TGI (HCT-15 colon)?
**A.** The TGI was over 100 µM.

**Q.** What about the TGI (HL-60(TB) leukemia) of the same compound?
**A.** Its TGI is over 100 µM.

**Q.** What about the TGI (HOP-62 NSCLC) of the same compound?
**A.** The TGI was over 100 µM.

**Q.** And the TGI (HOP-92 NSCLC)?
**A.** The TGI was 84.6 µM.

**Q.** What about the TGI (HT29 colon) of the same compound?
**A.** The TGI was over 100 µM.

**Q.** And the TGI (IGROV1 ovarian)?
**A.** The TGI was over 100 µM.

**Q.** And the TGI (K-562 leukemia)?
**A.** The TGI was over 100 µM.

**Q.** And the TGI (KM12 colon)?
**A.** The TGI was over 100 µM.

**Q.** And the TGI (LOX IMVI melanoma)?
**A.** The TGI was over 100 µM.

**Q.** And the TGI (M14 melanoma)?
**A.** The TGI was over 100 µM.

**Q.** What about the TGI (MALME-3M melanoma) of the same compound?
**A.** Its TGI is over 100 µM.

**Q.** And the TGI (MCF7 breast)?
**A.** The TGI was over 100 µM.

**Q.** And the TGI (MDA-MB-231 breast)?
**A.** The TGI was over 100 µM.

**Q.** What about the TGI (MDA-MB-435) of the same compound?
**A.** The TGI was over 100 µM.

**Q.** And the TGI (MDA-N)?
**A.** The TGI was over 100 µM.

**Q.** And the TGI (MOLT-4 leukemia)?
**A.** The TGI was over 100 µM.

**Q.** What about the TGI (NCI-H226 lung) of the same compound?
**A.** Its TGI is over 100 µM.

**Q.** And the TGI (NCI-H23 lung)?
**A.** The TGI was over 100 µM.

**Q.** And the TGI (NCI-H460 lung)?
**A.** Its TGI is over 100 µM.

**Q.** What about the TGI (NCI-H522 lung) of the same compound?
**A.** The TGI was over 100 µM.

**Q.** And the TGI (NCI/ADR-RES ovarian)?
**A.** Its TGI is over 100 µM.

**Q.** What about the TGI (OVCAR-3 ovarian) of the same compound?
**A.** The TGI was over 100 µM.

**Q.** What about the TGI (OVCAR-4 ovarian) of the same compound?
**A.** The TGI was over 100 µM.

**Q.** What about the TGI (OVCAR-5 ovarian) of the same compound?
**A.** Its TGI is over 100 µM.

**Q.** And the TGI (OVCAR-8 ovarian)?
**A.** Its TGI is over 100 µM.

**Q.** And the TGI (PC-3 prostate)?
**A.** Its TGI is over 100 µM.

**Q.** And the TGI (RXF 393 renal)?
**A.** The TGI was over 100 µM.

**Q.** And the TGI (SF-268 CNS)?
**A.** The TGI was over 100 µM.

**Q.** And the TGI (SF-295 CNS)?
**A.** The TGI was over 100 µM.

**Q.** What about the TGI (SF-539 CNS) of the same compound?
**A.** The TGI was over 100 µM.

**Q.** And the TGI (SK-MEL-2 melanoma)?
**A.** Its TGI is over 100 µM.

**Q.** What about the TGI (SK-MEL-28 melanoma) of the same compound?
**A.** Its TGI is over 100 µM.

**Q.** What about the TGI (SK-MEL-5 melanoma) of the same compound?
**A.** Its TGI is over 100 µM.

**Q.** What about the TGI (SK-OV-3 ovarian) of the same compound?
**A.** The TGI was over 100 µM.

**Q.** And the TGI (SN12C renal)?
**A.** Its TGI is over 100 µM.

**Q.** And the TGI (SNB-19 CNS)?
**A.** Its TGI is over 100 µM.

**Q.** What about the TGI (SNB-75 CNS) of the same compound?
**A.** Its TGI is over 100 µM.

**Q.** What about the TGI (SR leukemia) of the same compound?
**A.** The TGI was over 100 µM.

**Q.** What about the TGI (SW-620 colon) of the same compound?
**A.** Its TGI is over 100 µM.

**Q.** And the TGI (T-47D breast)?
**A.** The TGI was over 100 µM.

**Q.** What about the TGI (TK-10 renal) of the same compound?
**A.** Its TGI is over 100 µM.

**Q.** What about the TGI (U251 CNS) of the same compound?
**A.** Its TGI is over 100 µM.

**Q.** What about the TGI (UACC-257 melanoma) of the same compound?
**A.** Its TGI is over 100 µM.

**Q.** What about the TGI (UACC-62 melanoma) of the same compound?
**A.** Its TGI is over 100 µM.

**Q.** And the TGI (UO-31 renal)?
**A.** The TGI was 5.01 µM.
